Bridge positions count the residues as written; N and C are the ends. Square brackets hold non-standard residues; d marks the D form. Peptide text beside a SMILES is read from it. Some results are limits rather than exact numbers.

This experiment has as its system S. aureus DPC5246. In kind it is cell-based, Staphylococcus aureus. The note with it: for Activity (Minimum Inhibitory Concentration, MIC): DPC5246, pH 6.8. On the procedure:
Peptides were resuspended at 1000 µM in 50 mM sodium phosphate buffer pH 6.8 and checked for purity by MALDI-TOF-MS. Peptides were serially diluted 1 in 4 to give a dilution series of 250, 62.50, 15.63, 3.91, 0.98 and 0.24 µM and assayed by the agar well diffusion assay described by Ryan et al.[19]. Briefly, 50 µl aliquots of each peptide concentration were plated on a S. aureus DPC5246 indicator plate and the plate incubated at 37 °C. Peptide activity (Minimum Inhibitory Concentration (MIC)) was taken as the lowest concentration of peptide to give a zone of inhibition. All assays were performed in triplicate. The dilution series values were rounded to the nearest whole number to give 1000, 250, 63, 16, 4, 1 and 0.25 µM and data is colour coded for ease of interpretation.

For `CSCC[C@@H]1NC(=O)CNC(=O)[C@H]([C@@H](C)O)NC(=O)[C@@H]2CCCN2C(=O)[C@@H](CCSC)NC(=O)CNC(=O)[C@H](CC(N)=O)NC(=O)[C@H](CC(N)=O)NC(=O)[C@H](Cc2ccc(O)cc2)NC(=O)[C@H](C(C)C)NC(=O)[C@H](CCCNC(=N)N)NC(=O)[C@@H](NC(=O)[C@H](CCCNC(=N)N)NC(=O)[C@H](Cc2c[nH]cn2)NC(=O)[C@H](CCCCN)NC(=O)[C@H](CCCCN)NC(=O)[C@H](CCCNC(=N)N)NC(=O)[C@@H](N)CCCCN)CSSC[C@@H](C(=O)O)NC(=O)[C@H](Cc2c[nH]c3ccccc23)NC(=O)[C@H](CCCNC(=N)N)NC(=O)[C@H](Cc2ccc(O)cc2)NC1=O` [M14Md] (H-KRKKHRCRVYNNG[dM]PTGMYRWC-OH; disulfide 7-22; N-terminus assumed), the “Activity (Minimum Inhibitory Concentration, MIC)” value is 63 µM. Further, the “fold reduction in activity compared with bactofencin A (wild type)” value (S. aureus DPC5246, agar well diffusion MIC) stood at 63 fold.

As for `CSCC[C@@H]1NC(=O)CNC(=O)[C@H](CC(N)=O)NC(=O)[C@H](CC(N)=O)NC(=O)[C@H](Cc2ccc(O)cc2)NC(=O)[C@H](C(C)C)NC(=O)[C@H](CCCNC(=N)N)NC(=O)[C@@H](NC(=O)[C@H](CCCNC(=N)N)NC(=O)[C@H](Cc2c[nH]cn2)NC(=O)[C@H](CCCCN)NC(=O)[C@H](CCCCN)NC(=O)[C@H](CCCNC(=N)N)NC(=O)[C@@H](N)CCCCN)CSSC[C@@H](C(=O)O)NC(=O)[C@H](Cc2c[nH]c3ccccc23)NC(=O)[C@H](CCCNC(=N)N)NC(=O)[C@H](Cc2ccc(O)cc2)NC(=O)[C@H](C)NC(=O)CNC(=O)[C@H]([C@@H](C)O)NC(=O)[C@@H]2CCCN2C1=O` [M18A] (H-KRKKHRCRVYNNGMPTGAYRWC-OH; disulfide 7-22), the “Activity (Minimum Inhibitory Concentration, MIC)” value amounted to 1 µM.

For the molecule `CSCC[C@@H]1NC(=O)CNC(=O)[C@H](CC(N)=O)NC(=O)[C@H](CC(N)=O)NC(=O)[C@H](Cc2ccc(O)cc2)NC(=O)[C@H](C(C)C)NC(=O)[C@H](CCCNC(=N)N)NC(=O)[C@@H](NC(=O)[C@H](CCCNC(=N)N)NC(=O)[C@H](Cc2c[nH]cn2)NC(=O)[C@H](CCCCN)NC(=O)[C@H](CCCCN)NC(=O)[C@H](CCCNC(=N)N)NC(=O)[C@@H](N)CCCCN)CSSC[C@@H](C(=O)O)NC(=O)[C@H](Cc2c[nH]c3ccccc23)NC(=O)[C@H](CCCNC(=N)N)NC(=O)[C@H](Cc2ccc(O)cc2)NC(=O)[C@@H](CCSC)NC(=O)CNC(=O)[C@H]([C@@H](C)O)NC(=O)[C@@H]2CCCN2C1=O` [M18Md] (H-KRKKHRCRVYNNGMPTG[dM]YRWC-OH; disulfide 7-22; N-terminus assumed), the “Activity (Minimum Inhibitory Concentration, MIC)” value was found to be 16 µM.

Consider `CSCC[C@@H]1NC(=O)CNC(=O)[C@H]([C@@H](C)O)NC(=O)[C@@H]2CCCN2C(=O)[C@H](CCSC)NC(=O)CNC(=O)[C@H](CC(N)=O)NC(=O)[C@H](C)NC(=O)[C@H](Cc2ccc(O)cc2)NC(=O)[C@H](C(C)C)NC(=O)[C@H](CCCNC(=N)N)NC(=O)[C@@H](NC(=O)[C@H](CCCNC(=N)N)NC(=O)[C@H](Cc2c[nH]cn2)NC(=O)[C@H](CCCCN)NC(=O)[C@H](CCCCN)NC(=O)[C@H](CCCNC(=N)N)NC(=O)[C@@H](N)CCCCN)CSSC[C@@H](C(=O)O)NC(=O)[C@H](Cc2c[nH]c3ccccc23)NC(=O)[C@H](CCCNC(=N)N)NC(=O)[C@H](Cc2ccc(O)cc2)NC1=O` [N11A] (H-KRKKHRCRVYANGMPTGMYRWC-OH; disulfide 7-22), for which the “Activity (Minimum Inhibitory Concentration, MIC)” value is 16 µM.

For the molecule `CSCC[C@@H]1NC(=O)CNC(=O)[C@H]([C@@H](C)O)NC(=O)[C@@H]2CCCN2C(=O)[C@H](CCSC)NC(=O)CNC(=O)[C@H](CC(N)=O)NC(=O)[C@@H](CC(N)=O)NC(=O)[C@H](Cc2ccc(O)cc2)NC(=O)[C@H](C(C)C)NC(=O)[C@H](CCCNC(=N)N)NC(=O)[C@@H](NC(=O)[C@H](CCCNC(=N)N)NC(=O)[C@H](Cc2c[nH]cn2)NC(=O)[C@H](CCCCN)NC(=O)[C@H](CCCCN)NC(=O)[C@H](CCCNC(=N)N)NC(=O)[C@@H](N)CCCCN)CSSC[C@@H](C(=O)O)NC(=O)[C@H](Cc2c[nH]c3ccccc23)NC(=O)[C@H](CCCNC(=N)N)NC(=O)[C@H](Cc2ccc(O)cc2)NC1=O` [N11Nd] (H-KRKKHRCRVY[dN]NGMPTGMYRWC-OH; disulfide 7-22; N-terminus assumed), the “Activity (Minimum Inhibitory Concentration, MIC)” value is greater than 1000 µM.

For `CSCC[C@@H]1NC(=O)CNC(=O)[C@H]([C@@H](C)O)NC(=O)[C@@H]2CCCN2C(=O)[C@H](CCSC)NC(=O)CNC(=O)[C@H](C)NC(=O)[C@H](CC(N)=O)NC(=O)[C@H](Cc2ccc(O)cc2)NC(=O)[C@H](C(C)C)NC(=O)[C@H](CCCNC(=N)N)NC(=O)[C@@H](NC(=O)[C@H](CCCNC(=N)N)NC(=O)[C@H](Cc2c[nH]cn2)NC(=O)[C@H](CCCCN)NC(=O)[C@H](CCCCN)NC(=O)[C@H](CCCNC(=N)N)NC(=O)[C@@H](N)CCCCN)CSSC[C@@H](C(=O)O)NC(=O)[C@H](Cc2c[nH]c3ccccc23)NC(=O)[C@H](CCCNC(=N)N)NC(=O)[C@H](Cc2ccc(O)cc2)NC1=O` [N12A] (H-KRKKHRCRVYNAGMPTGMYRWC-OH; disulfide 7-22), the “Activity (Minimum Inhibitory Concentration, MIC)” value is 4 µM.

As for `CSCC[C@@H]1NC(=O)CNC(=O)[C@H]([C@@H](C)O)NC(=O)[C@@H]2CCCN2C(=O)[C@H](CCSC)NC(=O)CNC(=O)[C@@H](CC(N)=O)NC(=O)[C@H](CC(N)=O)NC(=O)[C@H](Cc2ccc(O)cc2)NC(=O)[C@H](C(C)C)NC(=O)[C@H](CCCNC(=N)N)NC(=O)[C@@H](NC(=O)[C@H](CCCNC(=N)N)NC(=O)[C@H](Cc2c[nH]cn2)NC(=O)[C@H](CCCCN)NC(=O)[C@H](CCCCN)NC(=O)[C@H](CCCNC(=N)N)NC(=O)[C@@H](N)CCCCN)CSSC[C@@H](C(=O)O)NC(=O)[C@H](Cc2c[nH]c3ccccc23)NC(=O)[C@H](CCCNC(=N)N)NC(=O)[C@H](Cc2ccc(O)cc2)NC1=O` [N12Nd] (H-KRKKHRCRVYN[dN]GMPTGMYRWC-OH; disulfide 7-22; N-terminus assumed), the “Activity (Minimum Inhibitory Concentration, MIC)” value was 4 µM.

On to `CSCC[C@@H]1NC(=O)CNC(=O)[C@H](CC(N)=O)NC(=O)[C@H](CC(N)=O)NC(=O)[C@H](Cc2ccc(O)cc2)NC(=O)[C@H](C(C)C)NC(=O)[C@H](CCCNC(=N)N)NC(=O)[C@@H](NC(=O)[C@H](CCCNC(=N)N)NC(=O)[C@H](Cc2c[nH]cn2)NC(=O)[C@H](CCCCN)NC(=O)[C@H](CCCCN)NC(=O)[C@H](CCCNC(=N)N)NC(=O)[C@@H](N)CCCCN)CSSC[C@@H](C(=O)O)NC(=O)[C@H](Cc2c[nH]c3ccccc23)NC(=O)[C@H](CCCNC(=N)N)NC(=O)[C@H](Cc2ccc(O)cc2)NC(=O)[C@H](CCSC)NC(=O)CNC(=O)[C@H]([C@@H](C)O)NC(=O)[C@H](C)NC1=O` [P15A] (H-KRKKHRCRVYNNGMATGMYRWC-OH; disulfide 7-22), for which the “Activity (Minimum Inhibitory Concentration, MIC)” value is on record as 1 µM.

Take `CSCC[C@@H]1NC(=O)CNC(=O)[C@H]([C@@H](C)O)NC(=O)[C@H]2CCCN2C(=O)[C@H](CCSC)NC(=O)CNC(=O)[C@H](CC(N)=O)NC(=O)[C@H](CC(N)=O)NC(=O)[C@H](Cc2ccc(O)cc2)NC(=O)[C@H](C(C)C)NC(=O)[C@H](CCCNC(=N)N)NC(=O)[C@@H](NC(=O)[C@H](CCCNC(=N)N)NC(=O)[C@H](Cc2c[nH]cn2)NC(=O)[C@H](CCCCN)NC(=O)[C@H](CCCCN)NC(=O)[C@H](CCCNC(=N)N)NC(=O)[C@@H](N)CCCCN)CSSC[C@@H](C(=O)O)NC(=O)[C@H](Cc2c[nH]c3ccccc23)NC(=O)[C@H](CCCNC(=N)N)NC(=O)[C@H](Cc2ccc(O)cc2)NC1=O` [P15Pd] (H-KRKKHRCRVYNNGM[dP]TGMYRWC-OH; disulfide 7-22; N-terminus assumed): the “Activity (Minimum Inhibitory Concentration, MIC)” value is recorded as greater than 1000 µM.

Consider `CSCC[C@@H]1NC(=O)CNC(=O)[C@H]([C@@H](C)O)NC(=O)[C@@H]2CCCN2C(=O)[C@H](CCSC)NC(=O)CNC(=O)[C@H](CC(N)=O)NC(=O)[C@H](CC(N)=O)NC(=O)[C@H](Cc2ccc(O)cc2)NC(=O)[C@H](C(C)C)NC(=O)[C@H](CCCNC(=N)N)NC(=O)[C@@H](NC(=O)[C@H](CCCNC(=N)N)NC(=O)[C@H](Cc2c[nH]cn2)NC(=O)[C@H](CCCCN)NC(=O)[C@H](CCCCN)NC(=O)[C@@H](N)CCCNC(=N)N)CSSC[C@@H](C(=O)O)NC(=O)[C@H](Cc2c[nH]c3ccccc23)NC(=O)[C@H](CCCNC(=N)N)NC(=O)[C@H](Cc2ccc(O)cc2)NC1=O` [R2-C22] (H-RKKHRCRVYNNGMPTGMYRWC-OH; disulfide 6-21; N-terminus assumed), for which the “Activity (Minimum Inhibitory Concentration, MIC)” value is given as 1 µM. In addition, the “activity compared with bactofencin A, in words” value (S. aureus DPC5246, agar well diffusion) is recorded as “no effect on activity”.

As to `CSCC[C@@H]1NC(=O)CNC(=O)[C@H]([C@@H](C)O)NC(=O)[C@@H]2CCCN2C(=O)[C@H](CCSC)NC(=O)CNC(=O)[C@H](CC(N)=O)NC(=O)[C@H](CC(N)=O)NC(=O)[C@H](Cc2ccc(O)cc2)NC(=O)[C@H](C(C)C)NC(=O)[C@H](CCCNC(=N)N)NC(=O)[C@@H](NC(=O)[C@H](CCCNC(=N)N)NC(=O)[C@H](Cc2c[nH]cn2)NC(=O)[C@H](CCCCN)NC(=O)[C@H](CCCCN)NC(=O)[C@H](C)NC(=O)[C@@H](N)CCCCN)CSSC[C@@H](C(=O)O)NC(=O)[C@H](Cc2c[nH]c3ccccc23)NC(=O)[C@H](CCCNC(=N)N)NC(=O)[C@H](Cc2ccc(O)cc2)NC1=O` [R2A] (H-KAKKHRCRVYNNGMPTGMYRWC-OH; disulfide 7-22), the “Activity (Minimum Inhibitory Concentration, MIC)” value turned out to be 1 µM.

As to `CSCC[C@@H]1NC(=O)CNC(=O)[C@H]([C@@H](C)O)NC(=O)[C@@H]2CCCN2C(=O)[C@H](CCSC)NC(=O)CNC(=O)[C@H](CC(N)=O)NC(=O)[C@H](CC(N)=O)NC(=O)[C@H](Cc2ccc(O)cc2)NC(=O)[C@H](C(C)C)NC(=O)[C@H](CCCNC(=N)N)NC(=O)[C@@H](NC(=O)[C@@H](N)CCCNC(=N)N)CSSC[C@@H](C(=O)O)NC(=O)[C@H](Cc2c[nH]c3ccccc23)NC(=O)[C@H](CCCNC(=N)N)NC(=O)[C@H](Cc2ccc(O)cc2)NC1=O` [R6-C22] (H-RCRVYNNGMPTGMYRWC-OH; disulfide 2-17; N-terminus assumed), the “Activity (Minimum Inhibitory Concentration, MIC)” value is 63 µM.

The values are drawn from article PMC6081437, “The potency of the broad spectrum bacteriocin, bactofencin A, against staphylococci is highly dependent on primary structure, N-terminal charge and disulphide formation” (Scientific Reports, 2018).
